From patent US10428044B2, “3-amino-1,5,6,7-tetrahydro-4H-indol-4-ones” (Bayer Pharma Aktiengesellschaft, priority 2014, dated 2019)

Target: (recombinant) catalytic domain of human Bub1 (amino acids 704-1085) (Homo sapiens (Human), UniProt O43683)
Assay: Bub1 kinase assay (TR-FRET)
Assay type: biochemical
Settings: ATP 10 μM final, peptide substrate 1 μM final, 60 min at 22° C., read-out: Biological Assay: Bub1 kinase assay median IC50
How it was run: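 Compounds were serially diluted 1:3.4 from 2 mM DMSO stocks and incubated with the enzyme reaction for 60 min at 22° C. The reaction was stopped with EDTA, and biotinylated peptide phosphorylation was read by TR-FRET using Eu anti-mouse IgG, anti-phosphoserine antibody and streptavidin-XL665. IC50 was fitted by 4-parameter logistic to inhibition normalized to no-inhibitor and no-enzyme controls.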

(recombinant) catalytic domain of human Bub1 (amino acids 704-1085), sequence (O43683 704-1085): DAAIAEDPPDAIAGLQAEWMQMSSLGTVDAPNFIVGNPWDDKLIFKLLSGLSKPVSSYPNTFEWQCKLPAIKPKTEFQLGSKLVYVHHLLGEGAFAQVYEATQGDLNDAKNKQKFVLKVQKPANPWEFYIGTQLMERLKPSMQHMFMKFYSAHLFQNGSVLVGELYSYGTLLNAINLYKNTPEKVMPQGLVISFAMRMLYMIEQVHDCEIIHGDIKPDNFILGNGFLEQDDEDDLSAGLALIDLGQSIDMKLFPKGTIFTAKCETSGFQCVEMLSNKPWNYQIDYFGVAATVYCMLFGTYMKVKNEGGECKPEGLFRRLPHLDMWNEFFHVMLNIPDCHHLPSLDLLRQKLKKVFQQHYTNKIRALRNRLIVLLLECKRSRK

| Structure (SMILES) | IC50 |
| --- | --- |
| CC1(C)CC(=O)c2c([nH]c(-c3ccncc3OCC(F)(F)F)c2Nc2ccccc2)C1 [Example 412, 6,6-dimethyl-3-(phenylamino)-2-[3-(2,2,2-trifluoroethoxy)pyridin-4-yl]-1,5,6,7-tetrahydro-4H-indol-4-one] | 0.0284 µM |
| Cn1ccnc1CC(=O)Nc1cc(-c2[nH]c3c(c2Nc2ccccc2)C(=O)CCC3)ccn1 [Example 463, N-[4-(3-anilino-4-oxo-4,5,6,7-tetrahydro-1H-indol-2-yl)pyridin-2-yl]-2-(1-methyl-1H-imidazol-2-yl)acetamide] | 0.142 µM |
| N#Cc1cnccc1-c1[nH]c2c(c1Nc1ccccc1)C(=O)CCC2 [Example 197, 4-[4-oxo-3-(phenylamino)-4,5,6,7-tetrahydro-1H-indol-2-yl]pyridine-3-carbonitrile] | > 20 µM |
| CC1(C)OC[C@H](CNc2cc(-c3[nH]c4c(c3Nc3ccccc3)C(=O)CCC4)ccn2)O1 [Example 370, 2-[2-({[(4S)-2,2-dimethyl-1,3-dioxolan-4-yl]methyl}amino)pyridin-4-yl]-3-(phenylamino)-1,5,6,7-tetrahydro-4H-indol-4-one] | 1.3 µM |
| CC1(C)CC(=O)c2c([nH]c(-c3ccncn3)c2Nc2ccccc2)C1 [Example 5, 6,6-dimethyl-3-(phenylamino)-2-(pyrimidin-4-yl)-1,5,6,7-tetrahydro-4H-indol-4-one] | 0.0252 µM |
| O=C1CCC(C(=O)Nc2cc(-c3[nH]c4c(c3Nc3ccccc3)C(=O)CCC4)ccn2)N1 (centres unmarked) [Example 311, 5-oxo-N-{4-[4-oxo-3-(phenylamino)-4,5,6,7-tetrahydro-1H-indol-2-yl]pyridin-2-yl}-prolinamide] | 0.0406 µM |
| CCCn1c2c(c(Nc3ccccc3)c1-c1ccncc1)C(=O)CCC2 [Example 171, 3-(phenylamino)-1-propyl-2-(pyridin-4-yl)-1,5,6,7-tetrahydro-4H-indol-4-one] | 0.0144 µM |
| O=C(Nc1cc(-c2[nH]c3c(c2Nc2ccccc2)C(=O)CCC3)ccn1)NC1CC1 [Example 379, 1-cyclopropyl-3-{4-[4-oxo-3-(phenylamino)-4,5,6,7-tetrahydro-1H-indol-2-yl]pyridin-2-yl}urea] | 0.0366 µM |
| CCNC(=S)Nc1cc(-c2[nH]c3c(c2Nc2ccccc2)C(=O)CCC3)ccn1 [Example 393, 1-ethyl-3-{4-[4-oxo-3-(phenylamino)-4,5,6,7-tetrahydro-1H-indol-2-yl]pyridin-2-yl}thiourea] | 0.233 µM |
| CC(C)Oc1cnccc1-c1[nH]c2c(c1Nc1ccccc1)C(=O)CC(C)(C)C2 [Example 406, 6,6-dimethyl-3-(phenylamino)-2-[3-(propan-2-yloxy)pyridin-4-yl]-1,5,6,7-tetrahydro-4H-indol-4-one] | 0.0537 µM |
| CC1(C)CC(=O)c2c([nH]c(-c3ccncc3)c2Nc2cccnc2)C1 [Example 63, 6,6-dimethyl-2-(pyridin-4-yl)-3-(pyridin-3-ylamino)-1,5,6,7-tetrahydro-4H-indol-4-one] | 0.196 µM |
| O=C1CC2(CC2)Cc2[nH]c(-c3ccncc3F)c(Nc3ccccc3)c21 [Example 208, 2′-(3-fluoropyridin-4-yl)-3′-(phenylamino)-1′,7′-dihydrospiro[cyclopropane-1,6′-indol]-4′(5′H)-one] | 0.00639 µM |
| CC1(C)CC(=O)c2c([nH]c(-c3ccnc(C(F)F)c3)c2Nc2cccc(F)c2)C1 [Example 402, 2-[2-(difluoromethyl)pyridin-4-yl]-3-[(3-fluorophenyl)amino]-6,6-dimethyl-1,5,6,7-tetrahydro-4H-indol-4-one] | 0.312 µM |
| O=C1CCCc2[nH]c(-c3ccnc(NC(=O)C4CC4)c3)c(Nc3ccc(F)c(F)c3)c21 [Example 316, N-(4-{3-[(3,4-difluorophenyl)amino]-4-oxo-4,5,6,7-tetrahydro-1H-indol-2-yl}pyridin-2-yl)cyclopropanecarboxamide] | 0.0823 µM |
| O=C(Nc1cc(-c2[nH]c3c(c2Nc2ccccc2)C(=O)CCC3)ccn1)c1ccns1 [Example 280, N-{4-[4-oxo-3-(phenylamino)-4,5,6,7-tetrahydro-1H-indol-2-yl]pyridin-2-yl}-1,2-thiazole-5-carboxamide] | 0.0103 µM |
| CC1(C)CC(=O)c2c([nH]c(-c3ccnnc3)c2Nc2ccccc2)C1 [Example 55, 6,6-dimethyl-3-(phenylamino)-2-(pyridazin-4-yl)-1,5,6,7-tetrahydro-4H-indol-4-one] | 0.449 µM |
| CC1(C)CC(=O)c2c([nH]c(-c3ccncc3)c2Nc2cccc(C3(C)OCCO3)c2)C1 [Example 153, 6,6-dimethyl-3-{[3-(2-methyl-1,3-dioxolan-2-yl)phenyl]amino}-2-(pyridin-4-yl)-1,5,6,7-tetrahydro-4H-indol-4-one] | 11.5 µM |
| COc1ccc(Cn2cc(C(=O)Nc3cc(-c4[nH]c5c(c4Nc4ccccc4)C(=O)CCC5)ccn3)cn2)cc1 [Example 450, 1-(4-methoxybenzyl)-N-{4-[4-oxo-3-(phenylamino)-4,5,6,7-tetrahydro-1H-indol-2-yl]pyridin-2-yl}-1H-pyrazole-4-carboxamide] | 0.00624 µM |

| Structure (SMILES) | IC50 |
| --- | --- |
| O=C(COc1ccccn1)Nc1cc(-c2[nH]c3c(c2Nc2ccccc2)C(=O)CCC3)ccn1 [Example 347, N-{4-[4-oxo-3-(phenylamino)-4,5,6,7-tetrahydro-1H-indol-2-yl]pyridin-2-yl}-2-(pyridin-2-yloxy)acetamide] | 0.101 µM |
| O=C(Nc1cc(-c2[nH]c3c(c2Nc2ccccc2)C(=O)CCC3)ccn1)c1cnco1 [Example 282, N-{4-[4-oxo-3-(phenylamino)-4,5,6,7-tetrahydro-1H-indol-2-yl]pyridin-2-yl}-1,3-oxazole-5-carboxamide] | 0.00972 µM |
| O=C(Nc1cc(-c2[nH]c3c(c2Nc2ccccc2)C(=O)CCC3)ccn1)c1cc(F)cc(F)c1 [Example 452, 3,5-difluoro-N-{4-[4-oxo-3-(phenylamino)-4,5,6,7-tetrahydro-1H-indol-2-yl]pyridin-2-yl}benzamide] | 0.0192 µM |
| O=C(Nc1ccncc1)Nc1cc(-c2[nH]c3c(c2Nc2ccccc2)C(=O)CCC3)ccn1 [Example 385, 1-{4-[4-oxo-3-(phenylamino)-4,5,6,7-tetrahydro-1H-indol-2-yl]pyridin-2-yl}-3-pyridin-4-ylurea] | 0.0101 µM |
| O=C1CCCc2[nH]c(-c3ccnc(NCc4ccccc4)c3)c(Nc3ccccc3)c21 [Example 366, 2-[2-(benzylamino)pyridin-4-yl]-3-(phenylamino)-1,5,6,7-tetrahydro-4H-indol-4-one] | 1.66 µM |
| CC1(C)CC(=O)c2c([nH]c(-c3ccncc3)c2Nc2cc(F)ccc2CO)C1 [Example 487, 3-{[5-fluoro-2-(hydroxymethyl)phenyl]amino}-6,6-dimethyl-2-(pyridin-4-yl)-1,5,6,7-tetrahydro-4H-indol-4-one] | 0.00335 µM |
| O=C1CCCc2[nH]c(-c3ccnc(NC(=O)C4(F)CC4)c3)c(Nc3ccccc3)c21 [Example 261, 1-fluoro-N-{4-[4-oxo-3-(phenylamino)-4,5,6,7-tetrahydro-1H-indol-2-yl]pyridin-2-yl}cyclopropanecarboxamide] | 0.0417 µM |
| CC1(C)CC(=O)c2c([nH]c(-c3ccncc3)c2Nc2ccc3ccoc3c2)C1 [Example 26, 3-(1-benzofuran-6-ylamino)-6,6-dimethyl-2-(pyridin-4-yl)-1,5,6,7-tetrahydro-4H-indol-4-one] | 0.0327 µM |
| CN[C@H](C)C(=O)Nc1cc(-c2[nH]c3c(c2Nc2ccccc2)C(=O)CCC3)ccn1 [Example 302, N^2-methyl-N-{4-[4-oxo-3-(phenylamino)-4,5,6,7-tetrahydro-1H-indol-2-yl]pyridin-2-yl}-D-alaninamide] | 0.48 µM |
| CC(C)(C)n1cc(C(=O)Nc2cc(-c3[nH]c4c(c3Nc3ccccc3)C(=O)CCC4)ccn2)cn1 [Example 448, 1-tert-butyl-N-{4-[4-oxo-3-(phenylamino)-4,5,6,7-tetrahydro-1H-indol-2-yl]pyridin-2-yl}-1H-pyrazole-4-carboxamide] | 0.00893 µM |
| CC1(C)CC(=O)c2c(Nc3ccccc3)c(-c3ccncc3)n(CC(F)(F)F)c2C1 [Example 180, 6,6-dimethyl-3-(phenylamino)-2-(pyridin-4-yl)-1-(2,2,2-trifluoroethyl)-1,5,6,7-tetrahydro-4H-indol-4-one] | 0.199 µM |
| CC(C)C1CC(=O)c2c([nH]c(-c3ccnc(NC(=O)C4CC4)c3)c2Nc2ccccc2)C1 (centres unmarked) [Example 318, N-{4-[4-oxo-3-(phenylamino)-6-(propan-2-yl)-4,5,6,7-tetrahydro-1H-indol-2-yl]pyridin-2-yl}cyclopropanecarboxamide] | 0.00971 µM |
| O=C(Nc1cc(-c2[nH]c3c(c2Nc2ccccc2)C(=O)CCC3)ccn1)c1ccsn1 [Example 276, N-{4-[4-oxo-3-(phenylamino)-4,5,6,7-tetrahydro-1H-indol-2-yl]pyridin-2-yl}-1,2-thiazole-3-carboxamide] | 0.0184 µM |
| O=C1CCCc2[nH]c(-c3ccncc3)c(Nc3ccc(F)c(F)c3)c21 [Example 134, 3-[(3,4-difluorophenyl)amino]-2-(pyridin-4-yl)-1,5,6,7-tetrahydro-4H-indol-4-one] | 0.0497 µM |
| CC1(C)CC(=O)c2c([nH]c(-c3ccnc4c3OCCO4)c2Nc2ccccc2)C1 [Example 210, 2-(2,3-dihydro[1,4]dioxino[2,3-b]pyridin-8-yl)-6,6-dimethyl-3-(phenylamino)-1,5,6,7-tetrahydro-4H-indol-4-one] | 0.13 µM |
| O=C1CCCc2[nH]c(-c3ccnc(NC(=O)C4CC4)c3)c(Nc3ccccc3)c21 [Example 48, N-{4-[4-oxo-3-(phenylamino)-4,5,6,7-tetrahydro-1H-indol-2-yl]pyridin-2-yl}cyclopropanecarboxamide] | 0.0135 µM |
| CC1(C)CC(=O)c2c([nH]c(-c3ccnc(NC(=O)[C@H]4C[C@H]4F)c3)c2Nc2ccccc2)C1 (racemic) [Example 257, (R,R)—N-{4-[6,6-dimethyl-4-oxo-3-(phenylamino)-4,5,6,7-tetrahydro-1H-indol-2-yl]pyridin-2-yl}-2-fluorocyclopropanecarboxamide] | 0.0597 µM |
